# Results from US20230339952A1, “MACROCYCLIC HETEROCYCLES AND USES THEREOF” (Kumquat Biosciences Inc., priority 2022, published 2023).
# Like-named read-outs stand apart in the source and are kept apart here.
# Key:
# [1] = amine bond, NaBH3CN, 25.0 °C
# [2] = target: SOS1 (Homo sapiens (Human), UniProt Q07889); assay: Ras-SOS interaction assay (HTRF), K-Ras G13D utilized; assay type: binding
# [3] = system: NCI-H1975 (ATCC CRL-5908) cell line comprising an EGFR T790M L858R double mutation; assay: EGFR-SOS cellular inhibition assay (CellTiter-Glo cell proliferation); assay type: cell-based; details: Homo sapiens
# Protocol: A CellTiter-Glo (CTG) luminescent based assay (Promega) is used to assess growth of the cells, as a measurement of the ability of the compounds herein to inhibit EGFR signaling in the cells. […] The day after plating, cells are treated with a dilution series (e.g., a 9 point 3-fold dilution series) of the compounds herein (e.g., approximately 125 μL final volume per well).
# [4] = system: MIA PaCa-2 cells (K-Ras G12C); assay: Ras-SOS cellular growth inhibition assay (CellTiter-Glo); details: Homo sapiens, MIA PaCa-2, 120 h, read-out: IC50 in inhibiting MIA PaCa-2 cell growth
# Protocol: A CellTiter-Glo (CTG) luminescent based assay (Promega) is used to assess growth of the cells, as a measurement of the ability of the compounds herein to inhibit Ras signaling in the cells. […] The day after plating, cells are treated with a dilution series (e.g., a 9 point 3-fold dilution series) of the compounds herein (e.g., approximately 125 μL final volume per well). Cell viability can be monitored (e.g., approximately 5 days later) according to the manufacturer's recommended instructions, where the CellTiter-Glo reagent is added (e.g., approximately 65 μL), vigorously mixed, covered, and placed on a plate shaker (e.g., approximately for 20 min) to ensure sufficient cell lysis prior to assessment of luminescent signal. The IC50 values are determined using the four-parameter fit. The resulting IC50 value is a measurement of the ability of the compounds herein to reduce cell growth of Ras-driven cells as representative tumor cells.
# [5] = Mouse oral exposure (% F); assay type: in vivo; details: plasma, female CD-1 mice, 10 mg/kg oral vs 2 mg/kg IV, single dosing
# Protocol: A pharmacokinetic profile for a test compound is assessed by single dosing in female CD-1 mice. […] One set of animals is dosed intravenous (IV) with test compound, 2 mg/kg in 20% HP-beta-CD or 20% Captisol, pH adjusted to −5-6 by citric acid at 10 mL/kg. Time of blood sampling is 5 minutes, 15 minutes, 30 minutes, 90 minutes, 360 minutes, and 24 hours following IV dosing. […] Oral dosing solution concentration is 1 mg/mL test compound and 10 mL/kg. Time of blood sampling is 15 minutes, 30 minutes, 90 minutes, 180 minutes, 360 minutes and 24 hours following oral (po) dosing. Blood samples (˜0.1 mL/sample) are collected via submandibular facial vein and placed in tubes containing EDTA-K2 and stored on ice until centrifuged. The blood samples are centrifuged at approximately 6800 g for 6 minutes at 2-8° C. and the resulting plasma is separated and stored frozen at approximately −80° C. Plasma samples are analyzed using an Agilent Technologies 6430 Triple Quad LC/MS system, following the manufacturer instructions. All the analytes are detected with positive-mode electrospray ionization (ES+). […] Based on the time course sampling, an area under the curve is calculated for the oral dose group and the intravenous dose group. Percentage mouse bioavailability is calculated based on equation 6. […]
# [6] = K-Ras G13D, read-out: SOS1 IC50
# [7] = 120 h, NCI-H1975 cell proliferation, approximately 5 days, read-out: H1975 IC50
# [8] = NCI-H1975, EGFR T790M L858R double mutation, read-out: IC50 in inhibiting growth of NCI-H1975 cell line
# [9] = K-Ras G13D, read-out: IC50 value against SOS1
# [10] = comparative values (Table 3), read-out: SOS1 IC50
# Sequence of SOS1 (Q07889 564-1049): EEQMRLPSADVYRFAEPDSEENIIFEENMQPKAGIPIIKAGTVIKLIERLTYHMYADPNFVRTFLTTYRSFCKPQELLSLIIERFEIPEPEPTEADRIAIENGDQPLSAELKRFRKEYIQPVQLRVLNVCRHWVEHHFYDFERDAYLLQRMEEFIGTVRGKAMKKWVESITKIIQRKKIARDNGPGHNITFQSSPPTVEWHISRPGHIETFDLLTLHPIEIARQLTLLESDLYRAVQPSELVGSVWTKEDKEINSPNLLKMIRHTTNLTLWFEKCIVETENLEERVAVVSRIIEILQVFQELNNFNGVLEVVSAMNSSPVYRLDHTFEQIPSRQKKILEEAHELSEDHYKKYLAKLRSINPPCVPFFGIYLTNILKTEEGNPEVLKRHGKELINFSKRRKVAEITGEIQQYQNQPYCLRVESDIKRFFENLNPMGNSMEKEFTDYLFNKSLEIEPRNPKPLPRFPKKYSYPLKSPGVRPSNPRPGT
SMILES,"ring closure, yield of all isomers ([1]; from COc1cc2nc(C)nc(N[C@H](C)c3ccc(-c4ccccc4C=O)s3)c2cc1OCCOCCOCCOCCOCCN, DCM, 28.4 mM, 16.0 h, 2 steps)","IC50 [2, 6]","ring closure, yield of all isomers ([1]; from C[C@@H](Nc1ncnc2c1cc(C1(C#N)CCS(=O)(=O)CC1)c(=O)n2CCCCCCC=O)c1cccc(C(F)(F)C2CCNCC2)c1F, MeOH, 0.73 mM, 16.5 h)","IC50 [3, 7]",IC50 [4],bioavailability [5],"IC50 [3, 8]","IC50 [2, 9]","IC50 [2, 10]"
"COc1cc2nc(C)nc3c2cc1OCCOCCOCCOCCOCCNCc1ccccc1C1=CC=C(S1)[C@@H](C)N3 [Compound 56, (R)-5^7-methoxy-5^2,3-dimethyl-6,9,12,15,18-pentaoxa-4,21-diaza-5(4,6)-quinazolina-2(2,5)-thiophena-1(1,2)-benzenacyclodocosaphane]",59.3%,100 to 5000 nM,–,–,–,–,–,–,–
"C[C@H]1Nc2ncnc3c2cc(C2(C#N)CCS(=O)(=O)CC2)c(=O)n3CCCCCCCN2CCC(CC2)C(F)(F)c2cccc1c2F [Compound 112, 4-((4R)-3^2,2,2-trifluoro-4-methyl-6^7-oxo-6^7,6^8-dihydro-5-aza-6(4,8)-pyrido[2,3-d]pyrimidina-1(4,1)-piperidina-3(1,3)-benzenacyclotridecaphane-6^6-yl)tetrahydro-2H-thiopyran-4-carbonitrile 1,1-dioxide]",–,< 100 nM,28.2%,< 1000 nM,–,–,–,–,–
"Cc1nc2c3cc(C4CCN(C(C)C)CC4)c(=O)n(c3n1)CCCC/C=C\CN1CCC(CC1)C(F)(F)c1cccc(c1)[C@@H](C)N2 [Compound 175, (4R,Z)-2,2-difluoro-6^6-(1-isopropylpiperidin-4-yl)-6^2,4-dimethyl-6^7,6^8-dihydro-5-aza-6(4,8)-pyrido[2,3-d]pyrimidina-1(4,1)-piperidina-3(1,3)-benzenacyclotridecaphan-11-en-6^7-one]",–,< 100 nM,–,< 1000 nM,< 1000 nM,≥ 4%,< 500 nM,< 50 nM,8 nM
"C[C@H]1Nc2ncnc3c2cc(C2CCS(=O)(=O)CC2)c(=O)n3CCCOCCCCN2CC(C2)CC(F)(F)c2cccc1c2 [Compound 176, (3R)-1^6-(1,1-dioxidotetrahydro-2H-thiopyran-4-yl)-5,5-difluoro-3-methyl-1^7,1^8-dihydro-12-oxa-2-aza-1(4,8)-pyrido[2,3-d]pyrimidina-7(3,1)-azetidina-4(1,3)-benzenacyclopentadecaphan-1^7-one]",–,< 100 nM,–,< 1000 nM,–,≥ 4%,< 500 nM,< 50 nM,7 nM
